{"source": "the kinase profiling compilation of Christmann-Franck et al. (2016)", "assay_in_all_cases": "radiometric filter-binding kinase assay, Kinase HotSpot", "conditions_in_all_cases": "compound 0.5 µM; ATP 10 µM", "key": {"[1]": {"molecular_target": "EPHA1 (human) (UniProt P21709)"}, "[2]": {"molecular_target": "MST4 (human) (UniProt Q9P289)", "sequence (Q9P289 whole entry, looked up)": "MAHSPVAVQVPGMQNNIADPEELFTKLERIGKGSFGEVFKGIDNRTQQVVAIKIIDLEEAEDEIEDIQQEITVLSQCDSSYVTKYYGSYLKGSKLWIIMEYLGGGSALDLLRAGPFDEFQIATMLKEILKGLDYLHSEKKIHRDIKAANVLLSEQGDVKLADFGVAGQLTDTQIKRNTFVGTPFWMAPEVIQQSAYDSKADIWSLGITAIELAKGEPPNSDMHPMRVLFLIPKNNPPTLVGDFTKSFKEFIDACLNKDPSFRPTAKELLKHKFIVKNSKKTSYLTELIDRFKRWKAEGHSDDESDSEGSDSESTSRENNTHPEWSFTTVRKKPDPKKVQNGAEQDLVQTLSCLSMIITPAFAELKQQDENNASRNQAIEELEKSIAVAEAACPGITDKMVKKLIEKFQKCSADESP"}, "[3]": {"molecular_target": "CHEK2 (human) (UniProt O96017)"}, "[4]": {"molecular_target": "CDK4 CCND3 (human) (UniProt P30281+P11802)"}, "[5]": {"molecular_target": "MATK (human) (UniProt P42679)"}, "[6]": {"molecular_target": "MARK4 (human) (UniProt Q96L34)"}, "[7]": {"molecular_target": "MAP3K7 TAB1 (human) (UniProt O43318+Q15750)"}, "[8]": {"molecular_target": "ULK1 (human) (UniProt O75385)"}, "[9]": {"molecular_target": "CDK2 CCNA2 (human) (UniProt P24941+P20248)"}, "[10]": {"molecular_target": "ERBB4 (human) (UniProt Q15303)", "sequence (Q15303 whole entry, looked up)": "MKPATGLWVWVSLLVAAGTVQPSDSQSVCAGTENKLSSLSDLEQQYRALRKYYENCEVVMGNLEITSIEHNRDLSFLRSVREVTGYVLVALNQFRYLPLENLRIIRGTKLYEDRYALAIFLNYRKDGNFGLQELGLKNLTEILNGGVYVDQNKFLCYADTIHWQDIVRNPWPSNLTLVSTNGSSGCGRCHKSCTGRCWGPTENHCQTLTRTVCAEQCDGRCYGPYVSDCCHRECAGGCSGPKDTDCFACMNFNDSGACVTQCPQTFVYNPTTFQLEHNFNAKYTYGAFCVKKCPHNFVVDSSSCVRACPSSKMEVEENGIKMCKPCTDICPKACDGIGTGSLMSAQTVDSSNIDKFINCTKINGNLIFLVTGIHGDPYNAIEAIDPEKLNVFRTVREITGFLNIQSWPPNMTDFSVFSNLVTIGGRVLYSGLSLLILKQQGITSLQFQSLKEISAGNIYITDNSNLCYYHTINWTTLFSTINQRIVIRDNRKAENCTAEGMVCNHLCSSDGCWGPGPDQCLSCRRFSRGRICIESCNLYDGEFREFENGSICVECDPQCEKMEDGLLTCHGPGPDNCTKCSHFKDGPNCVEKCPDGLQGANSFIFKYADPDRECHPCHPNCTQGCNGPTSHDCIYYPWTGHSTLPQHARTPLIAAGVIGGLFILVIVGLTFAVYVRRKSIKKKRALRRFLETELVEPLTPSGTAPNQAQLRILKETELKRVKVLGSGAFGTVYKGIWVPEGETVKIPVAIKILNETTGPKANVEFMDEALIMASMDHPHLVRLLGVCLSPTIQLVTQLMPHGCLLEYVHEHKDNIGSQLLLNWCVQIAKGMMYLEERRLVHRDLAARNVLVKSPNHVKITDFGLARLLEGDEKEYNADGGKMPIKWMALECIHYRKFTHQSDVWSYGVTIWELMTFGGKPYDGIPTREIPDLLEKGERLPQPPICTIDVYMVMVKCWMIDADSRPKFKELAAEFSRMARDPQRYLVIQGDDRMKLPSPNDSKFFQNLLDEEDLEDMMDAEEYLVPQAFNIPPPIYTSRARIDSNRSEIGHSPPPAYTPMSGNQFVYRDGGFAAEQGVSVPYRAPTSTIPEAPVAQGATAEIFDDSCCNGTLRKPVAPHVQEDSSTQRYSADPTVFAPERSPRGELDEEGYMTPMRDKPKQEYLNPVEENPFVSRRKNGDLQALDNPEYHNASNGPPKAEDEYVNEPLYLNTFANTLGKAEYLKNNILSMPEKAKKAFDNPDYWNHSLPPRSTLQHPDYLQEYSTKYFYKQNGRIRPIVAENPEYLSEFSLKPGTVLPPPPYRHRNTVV"}, "[11]": {"molecular_target": "CDK9 CCNK (human) (UniProt O75909+P50750)"}, "[12]": {"molecular_target": "WNK3 (human) (UniProt Q9BYP7)"}, "[13]": {"molecular_target": "HIPK2 (human) (UniProt Q9H2X6)"}, "[14]": {"molecular_target": "CAMK2B (human) (UniProt Q13554)", "sequence (Q13554 whole entry, looked up)": "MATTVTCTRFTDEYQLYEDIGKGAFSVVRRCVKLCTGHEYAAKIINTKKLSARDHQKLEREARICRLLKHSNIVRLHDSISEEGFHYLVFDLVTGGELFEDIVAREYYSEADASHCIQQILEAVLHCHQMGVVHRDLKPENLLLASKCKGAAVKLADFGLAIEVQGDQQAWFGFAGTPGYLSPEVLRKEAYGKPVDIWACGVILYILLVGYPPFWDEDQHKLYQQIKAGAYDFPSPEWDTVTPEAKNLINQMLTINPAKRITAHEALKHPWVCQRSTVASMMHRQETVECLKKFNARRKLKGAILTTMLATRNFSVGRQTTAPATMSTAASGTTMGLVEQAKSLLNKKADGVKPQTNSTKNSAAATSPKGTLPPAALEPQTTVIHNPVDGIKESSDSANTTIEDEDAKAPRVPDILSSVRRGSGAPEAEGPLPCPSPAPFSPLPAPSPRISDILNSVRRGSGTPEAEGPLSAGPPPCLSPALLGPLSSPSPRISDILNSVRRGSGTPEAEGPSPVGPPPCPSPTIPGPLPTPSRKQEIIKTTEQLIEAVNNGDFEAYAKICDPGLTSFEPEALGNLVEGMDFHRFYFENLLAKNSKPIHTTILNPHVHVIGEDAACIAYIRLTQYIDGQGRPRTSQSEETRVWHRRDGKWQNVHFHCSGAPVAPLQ"}, "[15]": {"molecular_target": "ROCK2 (human) (UniProt O75116)"}, "[16]": {"molecular_target": "FGFR3 (human) (UniProt P22607)"}, "[17]": {"molecular_target": "NEK4 (human) (UniProt P51957)"}, "[18]": {"molecular_target": "CDK1 CCNB1 (human) (UniProt P06493+P14635)", "sequence (P06493 whole entry, looked up)": "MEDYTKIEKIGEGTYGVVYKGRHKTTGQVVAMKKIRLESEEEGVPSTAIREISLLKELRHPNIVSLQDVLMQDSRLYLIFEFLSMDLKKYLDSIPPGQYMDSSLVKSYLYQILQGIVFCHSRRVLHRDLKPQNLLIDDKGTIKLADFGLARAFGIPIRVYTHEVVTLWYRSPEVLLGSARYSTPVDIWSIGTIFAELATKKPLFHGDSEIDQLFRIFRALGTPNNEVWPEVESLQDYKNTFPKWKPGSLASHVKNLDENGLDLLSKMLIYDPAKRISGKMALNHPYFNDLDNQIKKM", "sequence (P14635 whole entry, looked up)": "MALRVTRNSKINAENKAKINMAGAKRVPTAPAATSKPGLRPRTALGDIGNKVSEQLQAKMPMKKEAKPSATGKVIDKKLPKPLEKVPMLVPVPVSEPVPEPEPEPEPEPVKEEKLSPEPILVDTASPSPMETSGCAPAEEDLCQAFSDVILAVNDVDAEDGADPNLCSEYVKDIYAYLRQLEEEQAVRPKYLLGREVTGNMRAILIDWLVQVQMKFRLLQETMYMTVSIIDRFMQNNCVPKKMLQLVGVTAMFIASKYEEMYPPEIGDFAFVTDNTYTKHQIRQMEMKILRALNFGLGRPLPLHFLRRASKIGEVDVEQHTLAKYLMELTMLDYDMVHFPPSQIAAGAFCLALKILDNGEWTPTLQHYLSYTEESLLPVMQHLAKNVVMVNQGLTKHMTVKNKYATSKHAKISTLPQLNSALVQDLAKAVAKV"}, "[19]": {"molecular_target": "LIMK1 (human) (UniProt P53667)"}, "[20]": {"molecular_target": "CHEK1 (human) (UniProt O14757)", "sequence (O14757 whole entry, looked up)": "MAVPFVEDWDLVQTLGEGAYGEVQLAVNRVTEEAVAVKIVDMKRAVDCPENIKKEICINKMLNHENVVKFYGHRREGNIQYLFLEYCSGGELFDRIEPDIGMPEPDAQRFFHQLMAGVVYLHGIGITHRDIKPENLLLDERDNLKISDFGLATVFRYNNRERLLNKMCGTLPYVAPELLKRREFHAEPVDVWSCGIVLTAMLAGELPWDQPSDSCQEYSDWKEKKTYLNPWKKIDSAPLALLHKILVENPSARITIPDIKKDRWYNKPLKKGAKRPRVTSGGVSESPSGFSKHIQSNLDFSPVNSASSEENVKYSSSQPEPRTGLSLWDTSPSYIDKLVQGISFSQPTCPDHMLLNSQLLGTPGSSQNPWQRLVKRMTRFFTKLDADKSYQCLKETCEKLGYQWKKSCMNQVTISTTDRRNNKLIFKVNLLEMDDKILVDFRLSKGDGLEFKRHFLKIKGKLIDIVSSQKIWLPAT"}, "[21]": {"molecular_target": "AXL (human) (UniProt P30530)", "sequence (P30530 whole entry, looked up)": "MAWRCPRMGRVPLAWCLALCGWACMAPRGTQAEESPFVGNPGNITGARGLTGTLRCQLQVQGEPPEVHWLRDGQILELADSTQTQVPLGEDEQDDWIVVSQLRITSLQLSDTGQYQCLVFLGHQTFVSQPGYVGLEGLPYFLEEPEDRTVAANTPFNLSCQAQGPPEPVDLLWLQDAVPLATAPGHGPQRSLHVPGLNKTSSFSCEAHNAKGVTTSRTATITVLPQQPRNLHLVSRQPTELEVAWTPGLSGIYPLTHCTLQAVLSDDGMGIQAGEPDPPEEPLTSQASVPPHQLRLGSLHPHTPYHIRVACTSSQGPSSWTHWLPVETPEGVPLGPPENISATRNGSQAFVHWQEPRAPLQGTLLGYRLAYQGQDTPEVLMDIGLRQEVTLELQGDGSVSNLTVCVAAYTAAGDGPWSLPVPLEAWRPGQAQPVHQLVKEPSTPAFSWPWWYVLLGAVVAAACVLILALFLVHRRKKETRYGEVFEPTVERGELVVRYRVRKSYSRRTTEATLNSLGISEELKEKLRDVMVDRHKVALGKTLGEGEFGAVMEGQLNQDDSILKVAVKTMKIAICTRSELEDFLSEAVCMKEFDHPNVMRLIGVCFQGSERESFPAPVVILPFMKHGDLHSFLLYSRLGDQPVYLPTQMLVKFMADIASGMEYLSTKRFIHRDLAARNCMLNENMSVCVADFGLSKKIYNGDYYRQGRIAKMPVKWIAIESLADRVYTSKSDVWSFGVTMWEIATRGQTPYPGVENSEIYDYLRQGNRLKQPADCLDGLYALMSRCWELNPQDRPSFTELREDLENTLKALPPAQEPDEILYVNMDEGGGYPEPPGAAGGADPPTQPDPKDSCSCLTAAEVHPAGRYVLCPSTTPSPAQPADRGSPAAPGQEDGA"}, "[22]": {"molecular_target": "PHKG2 (human) (UniProt P15735)"}, "[23]": {"molecular_target": "PRKD2 (human) (UniProt Q9BZL6)"}, "[24]": {"molecular_target": "FLT3 (human) (UniProt P36888)"}, "[25]": {"molecular_target": "PRKG2 (human) (UniProt Q13237)"}, "[26]": {"molecular_target": "CHUK (human) (UniProt O15111)"}, "[27]": {"molecular_target": "NEK9 (human) (UniProt Q8TD19)"}, "[28]": {"molecular_target": "TBK1 (human) (UniProt Q9UHD2)"}, "[29]": {"molecular_target": "PIM3 (human) (UniProt Q86V86)"}, "[30]": {"molecular_target": "KDR (human) (UniProt P35968)"}, "[31]": {"molecular_target": "GSK3A (human) (UniProt P49840)"}, "[32]": {"molecular_target": "RPS6KA5 KD2 (human) (UniProt O75582)"}, "[33]": {"molecular_target": "PRKACA (human) (UniProt P17612)"}, "[34]": {"molecular_target": "CSNK1E (human) (UniProt P49674)", "sequence (P49674 whole entry, looked up)": "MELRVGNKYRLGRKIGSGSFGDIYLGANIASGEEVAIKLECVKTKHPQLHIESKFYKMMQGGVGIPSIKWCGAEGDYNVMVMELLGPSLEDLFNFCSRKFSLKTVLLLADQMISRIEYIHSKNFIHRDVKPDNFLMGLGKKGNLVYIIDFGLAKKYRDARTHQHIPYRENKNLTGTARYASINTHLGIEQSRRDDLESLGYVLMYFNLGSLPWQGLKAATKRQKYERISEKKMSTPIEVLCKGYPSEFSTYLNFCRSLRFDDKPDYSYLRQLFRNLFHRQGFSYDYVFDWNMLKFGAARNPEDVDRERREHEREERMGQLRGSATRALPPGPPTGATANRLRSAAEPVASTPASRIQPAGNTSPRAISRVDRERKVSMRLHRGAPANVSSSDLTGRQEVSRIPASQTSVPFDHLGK"}, "[35]": {"molecular_target": "TGFBR2 (human) (UniProt P37173)"}, "[36]": {"molecular_target": "RPS6KA4 KD2 (human) (UniProt O75676)"}, "[37]": {"molecular_target": "MAP4K5 (human) (UniProt Q9Y4K4)"}, "[38]": {"molecular_target": "ACVRL1 (human) (UniProt P37023)"}, "[39]": {"molecular_target": "VRK1 (human) (UniProt Q99986)"}, "[40]": {"molecular_target": "ABL2 (human) (UniProt P42684)"}, "[41]": {"molecular_target": "PDGFRA (human) (UniProt P16234)"}}, "data": [{"smiles": "Cc1ccc(NC(=O)c2ccc(CN3CCN(C)CC3)cc2)cc1Nc1nc(-c2cccnc2)cs1", "values": [{"measurement": "residual activity", "setting": "[1]", "result": 96.5, "unit": "%"}, {"measurement": "residual activity", "setting": "[2]", "result": 97, "unit": "%"}, {"measurement": "residual activity", "setting": "[3]", "result": 101, "unit": "%"}, {"measurement": "residual activity", "setting": "[4]", "result": 115, "unit": "%"}, {"measurement": "residual activity", "setting": "[5]", "result": 85.9, "unit": "%"}, {"measurement": "residual activity", "setting": "[6]", "result": 101, "unit": "%"}, {"measurement": "residual activity", "setting": "[7]", "result": 98.6, "unit": "%"}, {"measurement": "residual activity", "setting": "[8]", "result": 97.7, "unit": "%"}, {"measurement": "residual activity", "setting": "[9]", "result": 94.7, "unit": "%"}, {"measurement": "residual activity", "setting": "[10]", "result": 93.5, "unit": "%"}, {"measurement": "residual activity", "setting": "[11]", "result": 109, "unit": "%"}, {"measurement": "residual activity", "setting": "[12]", "result": 99.9, "unit": "%"}, {"measurement": "residual activity", "setting": "[13]", "result": 90.8, "unit": "%"}, {"measurement": "residual activity", "setting": "[14]", "result": 100, "unit": "%"}, {"measurement": "residual activity", "setting": "[15]", "result": 95.1, "unit": "%"}, {"measurement": "residual activity", "setting": "[16]", "result": 94.3, "unit": "%"}, {"measurement": "residual activity", "setting": "[17]", "result": 92.4, "unit": "%"}, {"measurement": "residual activity", "setting": "[18]", "result": 97.6, "unit": "%"}, {"measurement": "residual activity", "setting": "[19]", "result": 98.1, "unit": "%"}, {"measurement": "residual activity", "setting": "[20]", "result": 110, "unit": "%"}, {"measurement": "residual activity", "setting": "[21]", "result": 86.5, "unit": "%"}, {"measurement": "residual activity", "setting": "[22]", "result": 69.1, "unit": "%"}, {"measurement": "residual activity", "setting": "[23]", "result": 98.2, "unit": "%"}, {"measurement": "residual activity", "setting": "[24]", "result": 84.4, "unit": "%"}, {"measurement": "residual activity", "setting": "[25]", "result": 95.4, "unit": "%"}, {"measurement": "residual activity", "setting": "[26]", "result": 96.2, "unit": "%"}, {"measurement": "residual activity", "setting": "[27]", "result": 98.6, "unit": "%"}, {"measurement": "residual activity", "setting": "[28]", "result": 97, "unit": "%"}, {"measurement": "residual activity", "setting": "[29]", "result": 73.7, "unit": "%"}, {"measurement": "residual activity", "setting": "[30]", "result": 106, "unit": "%"}, {"measurement": "residual activity", "setting": "[31]", "result": 101, "unit": "%"}, {"measurement": "residual activity", "setting": "[32]", "result": 103, "unit": "%"}, {"measurement": "residual activity", "setting": "[33]", "result": 104, "unit": "%"}, {"measurement": "residual activity", "setting": "[34]", "result": 98.8, "unit": "%"}, {"measurement": "residual activity", "setting": "[35]", "result": 101, "unit": "%"}, {"measurement": "residual activity", "setting": "[36]", "result": 101, "unit": "%"}, {"measurement": "residual activity", "setting": "[37]", "result": 97, "unit": "%"}, {"measurement": "residual activity", "setting": "[38]", "result": 103, "unit": "%"}, {"measurement": "residual activity", "setting": "[39]", "result": 97.4, "unit": "%"}, {"measurement": "residual activity", "setting": "[40]", "result": 57.7, "unit": "%"}, {"measurement": "residual activity", "setting": "[41]", "result": 1.64, "unit": "%"}]}, {"smiles": "O=c1cc(-c2cccc3c2Sc2ccccc2S3)oc(N2CCOCC2)c1", "values": [{"measurement": "residual activity", "setting": "[1]", "result": 84.7, "unit": "%"}, {"measurement": "residual activity", "setting": "[2]", "result": 90.4, "unit": "%"}, {"measurement": "residual activity", "setting": "[3]", "result": 102, "unit": "%"}, {"measurement": "residual activity", "setting": "[4]", "result": 99.2, "unit": "%"}, {"measurement": "residual activity", "setting": "[5]", "result": 102, "unit": "%"}, {"measurement": "residual activity", "setting": "[6]", "result": 100, "unit": "%"}, {"measurement": "residual activity", "setting": "[7]", "result": 84.5, "unit": "%"}, {"measurement": "residual activity", "setting": "[8]", "result": 91.9, "unit": "%"}, {"measurement": "residual activity", "setting": "[9]", "result": 101, "unit": "%"}, {"measurement": "residual activity", "setting": "[10]", "result": 105, "unit": "%"}, {"measurement": "residual activity", "setting": "[11]", "result": 109, "unit": "%"}, {"measurement": "residual activity", "setting": "[12]", "result": 109, "unit": "%"}, {"measurement": "residual activity", "setting": "[13]", "result": 105, "unit": "%"}, {"measurement": "residual activity", "setting": "[14]", "result": 106, "unit": "%"}, {"measurement": "residual activity", "setting": "[15]", "result": 109, "unit": "%"}, {"measurement": "residual activity", "setting": "[16]", "result": 94.7, "unit": "%"}, {"measurement": "residual activity", "setting": "[17]", "result": 90, "unit": "%"}, {"measurement": "residual activity", "setting": "[18]", "result": 88.5, "unit": "%"}, {"measurement": "residual activity", "setting": "[19]", "result": 103, "unit": "%"}, {"measurement": "residual activity", "setting": "[20]", "result": 109, "unit": "%"}, {"measurement": "residual activity", "setting": "[21]", "result": 106, "unit": "%"}, {"measurement": "residual activity", "setting": "[22]", "result": 98.6, "unit": "%"}, {"measurement": "residual activity", "setting": "[23]", "result": 105, "unit": "%"}, {"measurement": "residual activity", "setting": "[24]", "result": 98.4, "unit": "%"}, {"measurement": "residual activity", "setting": "[25]", "result": 92.2, "unit": "%"}, {"measurement": "residual activity", "setting": "[26]", "result": 87.4, "unit": "%"}, {"measurement": "residual activity", "setting": "[27]", "result": 110, "unit": "%"}, {"measurement": "residual activity", "setting": "[28]", "result": 88.5, "unit": "%"}, {"measurement": "residual activity", "setting": "[29]", "result": 52.3, "unit": "%"}, {"measurement": "residual activity", "setting": "[30]", "result": 95.9, "unit": "%"}, {"measurement": "residual activity", "setting": "[31]", "result": 86.7, "unit": "%"}, {"measurement": "residual activity", "setting": "[32]", "result": 117, "unit": "%"}, {"measurement": "residual activity", "setting": "[33]", "result": 99.6, "unit": "%"}, {"measurement": "residual activity", "setting": "[34]", "result": 104, "unit": "%"}, {"measurement": "residual activity", "setting": "[35]", "result": 93.4, "unit": "%"}, {"measurement": "residual activity", "setting": "[36]", "result": 88.1, "unit": "%"}, {"measurement": "residual activity", "setting": "[37]", "result": 93.6, "unit": "%"}, {"measurement": "residual activity", "setting": "[38]", "result": 99.9, "unit": "%"}, {"measurement": "residual activity", "setting": "[39]", "result": 90.7, "unit": "%"}, {"measurement": "residual activity", "setting": "[40]", "result": 92, "unit": "%"}, {"measurement": "residual activity", "setting": "[41]", "result": 101, "unit": "%"}]}]}
